# Measurements as given in patent publication US20110236395A1, “TREATMENT OF FIBROTIC EYE DISORDERS USING AN MMP2 INHIBITOR” (UNIVERSITY OF EAST ANGLIA, priority 2008, published 2011).
# Columns and labels:
# FHL 124 cells = assay: Patch contraction assay (TGF-β-induced matrix contraction); type: cell-based, human
# Procedure: FIG. 2. […] FHL 124 cells were seeded to form patches, maintained in serum-free medium before exposure to experimental conditions. All cultures were maintained for 72 hours in 5% EMEM (Eagle's minimal essential medium) alone or 5% FCS (fetal calf serum) EMEM supplemented with 10 ng/mL TGF-β1 or -β2±the MMP inhibitor GM6001 (25 μM). (A) Visual representations of patch assay cultures in different experimental conditions. (B) Quantified data showing differences in patch area. (C) Data showing differences in cell populations between patch areas (Coomassie blue dye was extracted and quantified from the same experiment as presented in (B)). In FIGS. 2(B) and (C) each left hand bar of the bar pairs reports the result in the absence of GM6001 (indicated as “−GM6001” in the key) and the right hand bar reports the result in the presence of GM6001 (indicated as “+GM6001” in the key). Data represent mean±SEM. * Indicates a significant difference from unstimulated control cells. # Indicates a significant difference between siMMP2 treated cells and SCR siRNA counterparts (p≦0.05, ANOVA with the Tukey test).
# FIG. 6. MMP2 is important for TGF-β-induced matrix contraction. FHL 124 cells were seeded to form patches, then transfected with siRNA targeted to MMP2 or SCR negative control and maintained in Optimem™ (Invitrogen Corporation; Optimem is a modified EMEM, buffered with HEPES and sodium bicarbonate and supplemented with hypoxanthine, thymidine, sodium pyruvate, L-glutamine or Glutamax, trace elements and growth factor; the protein level is minimal (15 μg/mL) with insulin and transferrin being the only protein supplements; phenol red is included as a pH indicator). Patches were measured after 72 hours of culture with 10 ng/mL TGF-β1 or […]. (A) Visual representations of patch assay cultures in different experimental conditions. (B) Quantified data showing differences in patch area. (C) Data showing differences in cell populations between patch areas (Coomassie blue dye was extracted and quantified from the same experiment as presented in (B)). In FIGS. 6(B) and (C) each left hand bar of the bar pairs reports the result with Scramble siRNA (indicated as “Scramble SiRNA” in the key) and the right hand bar reports the result in the presence of MMP2 specific siRNA (indicated as “MMP2 SiRNA” in the key). The data in (B) and (C) represent the mean±SEM (n≦4). *Indicates a significant difference from unstimulated control cells. # Indicates a significant difference between siMMP2 treated cells and SCR siRNA counterparts (p≦0.05, ANOVA with the Tukey test).
# FIG. 7. MMP2 inhibition using neutralising antibody ([…]) prevents TGF-β2 (10 ng/ml)-induced matrix contraction assessed by patch assay. In FIG. 7(B) each left hand bar of the bar pairs reports the result in the absence of the antibody (indicated as “−4 μg/ml Anti MMP2” in the key) and the right hand bar reports the result in the presence of the antibody (indicated as “+4 μg/ml Anti MMP2” in the key). Data expressed as Mean±SEM (n=3).
# FHL 124 cells were seeded at four sites on a tissue culture dish at 5000 cells in 25 μl and maintained in EMEM supplemented with 5% FCS until confluent regions spanning about 5 mm developed (Wormstone et al, Exp. Eye Res. (2004), 78, pages 705-14). The medium was then replaced with non-supplemented EMEM, and the cells were cultured for a further 24 hours, followed by the removal of medium from four patch culture dishes fixed for 30 minutes with 4% formaldehyde at room temperature, followed by washing in PBS. The patches were used as a t=0 reference control.
# All remaining cell cultures were exposed to experimental conditions for up to 3 days. Experiments were terminated after the appearance of cell-free regions (holes) within the central region of the patch, by fixation for 30 minutes with 4% formaldehyde at room temperature. […]
# [1] = system: posterior capsule / capsular bag; conditions: in the absence of TGF-β; cited from earlier work
# excised rat lenses = conditions: concentrations typically micromolar; cited from earlier work
# [2] = system: MMP2 gene expression in FHL 124 cells; assay: Quantitative real-time PCR of MMP2 gene expression after siRNA transfection; type: cell-based, human; conditions: 100 nM siRNA
# Procedure: FIG. 4. Validation of siRNA directed against specific inhibition of MMP2 for 24 hours using targeted siRNA techniques leads to a greater than 90% reduction in MMP2 gene expression. Furthermore, after 48 hours from initial MMP2 SiRNA transfection, MMP2 gene expression levels are still reduced by more than 80% in comparison with Scramble SiRNA controls. Each left hand bar of the bar pairs reports the result with Scramble siRNA (indicated as “Scramble SiRNA” in the key) and the right hand bar reports the result in the presence of MMP2 specific siRNA (indicated as “MMP2 SiRNA” in the key).
# Total RNA was extracted from tissue and primary cultured cells (RNeasy micro kits; Qiagen, West Sussex, UK) in accordance with the manufacturer's instructions. In the initial step, RLT buffer (containing-mercaptoethanol) was added directly to phosphate buffered saline (PBS)-washed culture monolayers. Cultured cell lysates were removed with a cell scraper. Each sample was then transferred to an individual Eppendorf tube and passed through a needle and syringe. The remainder of the protocol was as described by the manufacturer and included a DNAse step. Quality control was maintained with an RNA analyzer (Bioanalyzer 2100; Agilent, West Lothian, UK) and an RNA lab chip (6000 Nano lab chip; Agilent) to ensure that 28S and 18S rRNA bands were clearly evident in total RNA samples. RNA was quantified with a spectrophotometer (ND-1000; NanoDrop, Wilmington, Del., USA). For the samples analyzed, the 260:280 ratio ranged from 1.8 to 2.2 (mean, 2.0). Where possible, total RNA was immediately used for cDNA generation or was briefly stored at −80° C. […]
# Quantitative real-time PCR was used to analyze mRNA expression for all genes in FHL 124 cells (for a comprehensive description of MMPs and TIMPs primer/probe sets used, see Nuttall R. K. et al. (Mol Cancer Res (2003) 1, pages 333-345. Assuming 100% efficiency in the reverse transcription reaction, either 1 ng or 5 ng cDNA was used in real-time PCR reactions performed using a real-time PCR machine (ABI7700; Applied Biosystems). Reagent-based assays (Taq-Man Universal PCR Master Mix, No AmpErase UNG; Applied Biosystems) with all PCR reagents were used according to the manufacturer's instructions. The amount of amplification associated with priming from genomic DNA contamination was evaluated with control reverse transcription reactions containing all reagents without reverse transcriptase. […] The cycle number at which amplification entered the exponential phase (cycle threshold [CT]) was determined, and this number was used as an indicator for the amount of target RNA in each sample analyzed. […]
# MMP2 = assay: Gelatin zymography of MMP2 protein expression after siRNA transfection; type: cell-based, human; conditions: over a 72 hour period, zymography of culture media
# Procedure: FIG. 5. SiMMP2 suppresses MMP2 protein expression. […] However, throughout this period the MMP2 level in the siMMP2 treated cells is about 50% of the siRNA control cells (SCR). In FIG. 5A each left hand bar of the bar pairs reports the result with Scramble siRNA (indicated as “Scramble SiRNA” in the key) and the right hand bar reports the result in the presence of MMP2 specific siRNA (indicated as “MMP2 SiRNA” in the key).
# Gelatinolytic activity of culture media was analyzed by electrophoresis under non-reducing conditions on a 7% SDS-polyacrylamide gel containing 0.5 mg/mL denatured collagen type I (gelatin; Sigma) as previously described by Gavrilovic J. et al. (Cell Regul. (1990) 1, pages 1003-14). After electrophoresis, gels were washed twice in 2.5% Triton-X 100 for 15 minutes and then incubated for 4 hours at 37° C. in 100 mM Tris-HCl (pH 7.9), 30 mM CaCl2, and 0.02% sodium azide. The gels were stained with Coomassie brilliant blue (Sigma), and the images were captured with a gel scanner.
# Custom made MMP2 siRNA: sense 5′-[…]-3′ (SEQ. ID. NO: 1), antisense 5′-[…]-3′ (SEQ. ID. NO: 2) and siRNA negative control (universal scrambled siRNA) were used. Both siRNAs were purchased from Ambion Ltd. (Huntingdon, UK). FHL 124 cells were seeded onto 35-mm culture dishes at either 25,000 cells in 1.5 ml for protein extraction or as four patches of 5000 cells, for patch assay analysis. […]
# HLE-B3 = HLE-B3 cell line; cited from earlier work
# [3] = 25 μM GM6001 in presence of 10 ng/ml TGF-β1 or TGF-β2, 72 hours
# [4] = siMMP2 transfected, 10 ng/ml TGF-β1 or TGF-β2, 72 hours
compound,measurement,setting,value
"CNC(=O)[C@H](Cc1c[nH]c2ccccc12)NC(=O)[C@@H](CC(=O)NO)CC(C)C [GM6001, N-[(2R)-2-(hydroxamidocarbonylmethyl)-4-methylpentanoyl]-L-trypto-phan methylamide]",effect on patch area relative to control,"FHL 124 cells; 25 μM GM6001 alone (no TGF-β), 72 hours, vs control 5% FCS EMEM group",no significant effect on patch area
same,formation of cell free zones,FHL 124 cells; [3],suppressed the formation of cell free zones
same,patch area vs un-stimulated control group,FHL 124 cells; [3],did not significantly differ from the un-stimulated control group
same,TGF-β-induced matrix contraction,"FHL 124 cells; GM6001 25 μM, 10 ng/mL TGF-β1 or -β2, 72 hours (FIG. 2 legend)",prevents TGF-β-induced matrix contraction
same,total protein content by Coomassie blue dye extraction (cell population),"FHL 124 cells; patches ± 10 ng/ml TGF-β1 or -β2 ± GM6001, 72 hours",no significant changes
same,capsular bag contraction,[1],suppress consequent capsular bag contraction
same,cell migration onto the posterior capsule surface,[1],suppress cell migration onto the posterior capsule surface
same,occurrence of TGF-β-induced anterior subcapsular cataracts (ASCs),excised rat lenses,prevents the occurrence
"siMMP2: Custom made MMP2 siRNA: sense 5′-GGACACACUAAAGAAGAUGTT-3′, antisense 5′-CAUCUUCUUUAGUGUGUCCTT-3′, purchased from Ambion (chemistry not given here)",TGF-β-induced contraction,FHL 124 cells; [4],did not show any evidence of contraction
same,patch area vs non-TGF-β-treated controls,FHL 124 cells; [4],did not differ significantly from non-TGF-β-treated controls
same,patch area vs SCR control,"FHL 124 cells; siRNA transfected, non-stimulated conditions (no TGF-β)",did not show a statistical difference in patch area from the SCR control
same,reduction in MMP2 gene expression,"[2]; 24 hours in transfection conditions, vs negative control siRNA",greater than 90%
same,reduction in MMP2 gene expression,"[2]; 24 hours in transfection conditions, vs negative control siRNA, listed as siRNA against MMP2",90%
same,reduction in MMP2 gene expression,"[2]; 48 hours from transfection, vs Scramble siRNA controls",more than 80%
same,reduction in MMP2 gene expression,"[2]; 48 hours from transfection, vs Scramble siRNA controls, listed as siRNA against MMP2",> 70%
same,MMP2 protein level relative to Scrambled siRNA control,MMP2,about 50%
same,MMP2 protein level relative to Scrambled siRNA control,MMP2; listed as siRNA against MMP2,approximately 50%
O=C(NO)[C@@H](Cc1ccccc1)NS(=O)(=O)c1ccc(-c2ccccc2)cc1 [(2R)-[(4-biphenylylsulfonyl)amino]-N-hydroxyl-3-phenylpropionamide],occurrence of TGF-β-induced anterior subcapsular cataracts (ASCs),excised rat lenses,prevents the occurrence
O=C(O)[C@@H](Cc1ccccc1)NS(=O)(=O)c1ccc(-c2ccccc2)cc1 [(2R)-2-[(4-biphenylylsulphonyl)amino]-3-phenylpropionic acid],TGF-β1-induced morphological change in the cells,HLE-B3,blocked
